Results reported in patent EP1113726B1, “USE OF NEOHESPERIDIN DIHYDROCHALCONE FOR THE MANUFACTURE OF A MEDICAMENT FOR PREVENTING OR TREATING ELEVATED BLOOD LIPID LEVEL-RELATED DISEASES” (Korea Research Institute of Bioscience and Biotechnology, priority 1998, dated 2000).

Experiments:
Type in all cases: in vivo
[1] = tested on: New Zealand White rabbits; assay: Microscopic grading of abnormal fat-containing cells in the liver of cholesterol-fed rabbits (fatty liver); conditions: 1 % cholesterol diet for 6 weeks plus 1 mg/kg Lovastatin or 0.05 % neohesperidin dihydrochalcone
Protocol: (§1) 30 three-month-old New Zealand White rabbits(Yeonam Horticulture and Animal Husbandry College, Korea), each weighing about 2.5 to 2.6 kg, were raised under a condition of temperature 20±2°C, relative humidity 55±5 %, and photoperiod 12L/12D. The rabbits were divided into 3 groups and 3 groups of rabbits were fed with 3 different diets, i.e., RC4 diet(Oriental Yeast Co., Japan) containing 1 % cholesterol(Control group); 1 % cholesterol plus 1 mg/kg Lovastatin®(Merck, U.S.A.)(Lovastatin group); and 1 % cholesterol plus 0.05 % neohesperidin dihydrochalcone(Neohesperidin dihydrochalcone group), respectively. RC4 diet comprises 7.6 % moisture, 22.8 % crude protein, 2.8 % crude fat, 8.8 % crude ash, 14.4 % crude cellulose and 43.6 % soluble nitrogen-free substances. Neohesperidin dihydrochalcone was purchased from Sigma Chemical Co.(St. Louis, MO).
(§2) The rabbits were fed for 6 weeks while being allowed free access to the diets and water.
In order to evaluate the effects of feeding a high cholesterol diet with neohesperidin dihydrochalcone on liver tissues, the liver specimens taken from the sacrificed rabbit in Step 2 of Example 6 were treated in accordance with the procedure disclosed in Fogt F. and Nanji A., Toxicology and Applied Pharmacology, 136, 87-93, 1996; and Keegan A., et al., Journal of Hepatology 23: 591-600, 1995, and observed under a microscope to be classified into four grades, i.e., 1+(0-25%), 2+(26-50%), 3+(51-75), 4+(76-100%) based on the proportion of abnormal fat-containing cells around the central vein in the liver acinus.
Figs. 2A, 2B and 2C present the microscopic features of the livers of the rabbits administered with 1% cholesterol; 1% cholesterol plus 1 mg/kg Lovastatin®; 1% and cholesterol plus 0.05% neohesperidin dihydrochalcone, respectively.

[2] = tested on: New Zealand White rabbits; assay: Chemical analysis of blood of cholesterol-fed rabbits; conditions: rabbit serum, 1 % cholesterol diet for 6 weeks plus 1 mg/kg Lovastatin or 0.05 % neohesperidin dihydrochalcone
Protocol: as §1, §2
After six weeks, the rabbits were anesthetized with an intramuscular injection of ketamine (50 mg/kg) in the femoral region and sacrificed.

[3] = tested on: New Zealand White rabbits; assay: Analysis for fatty streak in the main artery of cholesterol-fed rabbits (Oil Red O staining); conditions: 1 % cholesterol diet for 6 weeks plus 1 mg/kg Lovastatin or 0.05 % neohesperidin dihydrochalcone
Protocol: as §1, §2
The chest of each of the rabbits sacrificed in Step 2 was incised. The downward portion of the main artery from the site 1 cm above the aortic valve was cut out in a length of about 5 cm and the fat surrounding the main artery was removed. The main artery was incised in the middle along the longitudinal axis and pinned to a dish. The moist artery was photographed and, then, the staining of fatty streaks was carried out in accordance with the method of Esper, E., et al. (J. Lab. Clin. Med., 121, 103-110(1993)) as follows.
A part of the incised main artery was washed three times with anhydrous propylene glycol for 2 min and stained for 30 min. with a saturated solution of Oil Red O(ORO, Sigma Co.) dissolved in propylene glycol. Thereafter, the artery was washed twice with 85 % propylene glycol for 3 min. to remove remaining staining solution and, then washed with physiological saline. The artery was photographed and the photograph was traced. The area of stained region (fatty streak region) was determined with an image analyzer(LEICA, Q-600, Germany) and its proportion(%) to the total arterial area was calculated.

GOT [2]: 125 (±19) IU/1 | GPT [2]: 73 (±9) IU/l | γ-GTP [2]: 12.4 (±0.8) IU/l
Compound: CC[C@H](C)C(=O)O[C@H]1C[C@@H](C)C=C2C=C[C@H](C)[C@H](CC[C@@H]3C[C@@H](O)CC(=O)O3)[C@H]21 [Lovastatin, reference compound]
B: Proportion of abnormal fat-containing cells ([1]; rabbit liver, cells around the central vein, mean of grades 1+ to 4+): 3.4 (±0.5) | microscopic features of the liver (Figs. 2B, 2C) ([1]; rabbits): many cells containing excessive fat | Total-C [2]: 1210 (±263) mg/dl | A: Proportion(%) of fatty streak region to the total arterial area ([3]; rabbit main artery): 5 (±4) % | layer of macrophage-lipid complex on the arterial endothelium (Figs. 1B, 1C) ([3]; rabbits): no or very thin layers of macrophage-lipid complex
